According to patent publication US20080153896A1, “Polymorphic Forms of an HMG-CoA Reductase Inhibitor and Uses Thereof” (priority 2006, published 2008):

Test: Stability (integrity) testing of amorphous and polymorphic form under storage conditions, RP-HPLC
Assay type: physicochemical
Parameters: key to Impurity RRT 0.738 / Impurity RRT 0.949 / Impurity RRT 1.050 / Impurity RRT 1.550 / Impurity RRT 0.136 / Impurity RRT 0.720 / Impurity RRT 0.706 / Impurity RRT 1.18 / Impurity RRT 1.826: % of total UV absorption (HPLC peak area); Impurity RRT 1.104 / Impurity RRT 1.698: unit not given beside the values
Conditions: for Total: in %
Description: The integrity of the different forms of the (3R, 5R)-7-[2-(4-fluorophenyl)-5-isopropyl-3-phenyl-4-[(4-hydroxymethylphenylamino)carbonyl]-pyrrol-1-yl]-3,5-dihydroxy-heptanoic acid, hemi calcium salt, was tested under different atmospheric conditions to determine the stability of the amorphous and polymorphic form of the drug in various storage environments. Reversed Phase-HPLC (RP-HPLC) was used to separate (3R, 5R)-7-[2-(4-fluorophenyl)-5-isopropyl-3-phenyl-4-[(4-hydroxymethylphenylamino)carbonyl]-pyrrol-1-yl]-3,5-dihydroxy-heptanoic acid, hemi calcium salt, from smaller molecules representing breakdown products as well as oxidized drug. The relative amount of the drug was reported as a percent of total absorption by UV. The total peak area of all UV absorption impurities was used to define total impurity of the drug. Impurities are defined by their relative retention time (RRT) compared to native drug. Samples were injected onto a C18 column using standard temperature, gradient and run-time conditions.
The results of this integrity testing for the amorphous form of (3R, 5R)-7-[2-(4-fluorophenyl)-5-isopropyl-3-phenyl-4-[(4-hydroxymethylphenylamino)carbonyl]-pyrrol-1-yl]-3,5-dihydroxy-heptanoic acid, hemi calcium salt, is shown in Table 5.
Three separate batches of polymorphic Form I of (3R, 5R)-7-[2-(4-fluorophenyl)-5-isopropyl-3-phenyl-4-[(4-hydroxymethylphenylamino)carbonyl]-pyrrol-1-yl]-3,5-dihydroxy-heptanoic acid, hemi calcium salt, were prepared and tested under the same atmospheric conditions described for the amorphous form.

## CC(C)c1c(C(=O)Nc2ccc(CO)cc2)c(-c2ccccc2)c(-c2ccc(F)cc2)n1CC[C@@H](O)C[C@@H](O)CC(=O)[O-].CC(C)c1c(C(=O)Nc2ccc(CO)cc2)c(-c2ccccc2)c(-c2ccc(F)cc2)n1CC[C@@H](O)C[C@@H](O)CC(=O)[O-].[Ca+2] [PP00204, (3R, 5R)-7-[2-(4-fluorophenyl)-5-isopropyl-3-phenyl-4-[(4-hydroxymethylphenylamino)carbonyl]-pyrrol-1-yl]-3,5-dihydroxy-heptanoic acid, hemi calcium salt]
5° C. 1 month
  Impurity RRT 0.731: 0.030
  Impurity RRT 0.832: 0.034
  Impurity RRT 0.876: 0.150
  Impurity RRT 0.952: 0.040
  Impurity RRT 0.965: 0.532
  Impurity RRT 0.974: 0.052
  Impurity RRT 0.991: 0.022
  Impurity RRT 1.024: 0.459
  Impurity RRT 1.041: 0.585
  Total: 1.904
5° C. 2 months
  Impurity RRT 0.885: 0.177
  Impurity RRT 0.952: 0.048
  Impurity RRT 0.965: 0.501
  Impurity RRT 0.974: 0.067
  Impurity RRT 0.991: 0.029
  Impurity RRT 1.024: 0.508
  Impurity RRT 1.041: 0.604
  Total: 1.934
5° C. 3 months
  Impurity RRT 0.892: 0.161
  Impurity RRT 0.965: 0.550
  Impurity RRT 0.981: 0.058
  Impurity RRT 1.024: 0.506
  Impurity RRT 1.041: 0.635
  Total: 1.91
5° C. 6 months
  Impurity RRT 0.731: 0.037
  Impurity RRT 0.832: 0.028
  Impurity RRT 0.876: 0.014
  Impurity RRT 0.892: 0.016
  Impurity RRT 0.952: 0.024
  Impurity RRT 0.965: 0.552
  Impurity RRT 1.024: 0.582
  Impurity RRT 1.041: 0.592
  Impurity RRT 1.074: 0.028
  Total: 1.873
25° C./60% RH 3 months
  Impurity RRT 0.885: 0.145
  Impurity RRT 0.892: 0.212
  Impurity RRT 0.965: 0.542
  Impurity RRT 0.981: 0.058
  Impurity RRT 1.024: 0.518
  Impurity RRT 1.041: 0.648
  Total: 2.123
25° C./60% RH 6 months
  Impurity RRT 0.731: 0.031
  Impurity RRT 0.832: 0.029
  Impurity RRT 0.876: 0.133
  Impurity RRT 0.892: 0.124
  Impurity RRT 0.952: 0.037
  Impurity RRT 0.965: 0.546
  Impurity RRT 1.024: 0.618
  Impurity RRT 1.041: 0.593
  Impurity RRT 1.074: 0.068
  Impurity RRT 1.104: 0.037
  Total: 2.216
30° C./55% RH 6 months
  Impurity RRT 0.885: 0.187
  Impurity RRT 0.892: 0.168
  Impurity RRT 0.965: 0.699
  Impurity RRT 1.024: 0.693
  Impurity RRT 1.041: 0.777
  Impurity RRT 1.074: 0.103
  Impurity RRT 1.104: 0.032
  Total: 2.659
30° C./65% RH 1 month
  Impurity RRT 0.731: 0.038
  Impurity RRT 0.832: 0.037
  Impurity RRT 0.876: 0.145
  Impurity RRT 0.892: 0.038
  Impurity RRT 0.952: 0.042
  Impurity RRT 0.965: 0.512
  Impurity RRT 0.974: 0.054
  Impurity RRT 0.991: 0.018
  Impurity RRT 1.024: 0.464
  Impurity RRT 1.041: 0.587
  Impurity RRT 1.074: 0.021
  Total: 1.956
30° C./65% RH 2 months
  Impurity RRT 0.885: 0.154
  Impurity RRT 0.892: 0.119
  Impurity RRT 0.952: 0.050
  Impurity RRT 0.965: 0.505
  Impurity RRT 0.974: 0.042
  Impurity RRT 0.991: 0.022
  Impurity RRT 1.024: 0.524
  Impurity RRT 1.041: 0.611
  Total: 2.027
30° C./65% RH 3 months
  Impurity RRT 0.832: 0.046
  Impurity RRT 0.892: 0.184
  Impurity RRT 0.965: 0.542
  Impurity RRT 0.981: 0.057
  Impurity RRT 1.024: 0.516
  Impurity RRT 1.041: 0.638
  Total: 1.983
40° C./75% RH 1 month
  Impurity RRT 0.731: 0.039
  Impurity RRT 0.832: 0.034
  Impurity RRT 0.876: 0.125
  Impurity RRT 0.892: 0.055
  Impurity RRT 0.965: 0.526
  Impurity RRT 0.974: 0.071
  Impurity RRT 0.991: 0.024
  Impurity RRT 1.024: 0.464
  Impurity RRT 1.041: 0.565
  Impurity RRT 1.074: 0.032
  Total: 1.955
40° C./75% RH 2 months
  Impurity RRT 0.738: 0.042
  Impurity RRT 0.885: 0.159
  Impurity RRT 0.892: 0.127
  Impurity RRT 0.949: 0.063
  Impurity RRT 0.965: 0.547
  Impurity RRT 0.991: 0.027
  Impurity RRT 1.024: 0.543
  Impurity RRT 1.041: 0.622
  Impurity RRT 1.074: 0.077
  Total: 2.207
40° C./75% RH 3 months
  Impurity RRT 0.892: 0.189
  Impurity RRT 0.965: 0.548
  Impurity RRT 0.981: 0.065
  Impurity RRT 1.024: 0.515
  Impurity RRT 1.041: 0.632
  Impurity RRT 1.104: 0.074
  Total: 2.023
40° C./75% RH 6 months
  Impurity RRT 0.731: 0.031
  Impurity RRT 0.832: 0.031
  Impurity RRT 0.876: 0.152
  Impurity RRT 0.892: 0.19
  Impurity RRT 0.952: 0.022
  Impurity RRT 0.965: 0.497
  Impurity RRT 1.024: 0.460
  Impurity RRT 1.041: 0.573
  Impurity RRT 1.050: 0.094
  Impurity RRT 1.074: 0.025
  Impurity RRT 1.104: 0.037
  Total: 2.112
Initial
  Impurity RRT 0.876: 0.146
  Impurity RRT 0.965: 0.560
  Impurity RRT 0.991: 0.022
  Impurity RRT 1.024: 0.464
  Impurity RRT 1.041: 0.581
  Total: 1.703
